Results as given in ChEMBL document CHEMBL2321873, “1-(4-Phenylpiperazin-1-yl)-2-(1H-pyrazol-1-yl)ethanones as novel CCR1 antagonists” (Bioorg Med Chem Lett, 2013).
Calls of active or inactive are those of the source. The rule behind the calls is not given here.

Columns and labels:
[1] = target: T1, C-C chemokine receptor-like 2 (Homo sapiens) (UniProt O00421); test: Antagonist activity at CCR11 (unknown origin) assessed as inhibition of calcium flux at 10 uM; format: functional
T1 sequence (whole entry): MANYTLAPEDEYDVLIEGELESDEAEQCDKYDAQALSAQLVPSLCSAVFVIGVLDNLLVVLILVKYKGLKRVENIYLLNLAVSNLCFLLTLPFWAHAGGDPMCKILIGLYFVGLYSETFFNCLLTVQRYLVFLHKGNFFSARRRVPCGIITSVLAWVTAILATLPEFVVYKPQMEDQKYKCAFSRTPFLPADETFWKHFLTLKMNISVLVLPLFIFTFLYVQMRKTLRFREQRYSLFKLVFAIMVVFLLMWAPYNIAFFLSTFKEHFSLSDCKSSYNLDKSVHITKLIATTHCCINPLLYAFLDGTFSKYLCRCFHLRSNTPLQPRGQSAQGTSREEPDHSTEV

[2] = target: C-X-C chemokine receptor type 6 (Homo sapiens) (UniProt O00574); test: Antagonist activity at CXCR6 (unknown origin) assessed as inhibition of calcium flux at 10 uM; format: functional
[3] = target: T2, C-X-C chemokine receptor type 1 (Homo sapiens) (UniProt P25024); test: Antagonist activity at CXCR1 (unknown origin) assessed as inhibition of chemotaxis at 10 uM
T2 sequence (whole entry): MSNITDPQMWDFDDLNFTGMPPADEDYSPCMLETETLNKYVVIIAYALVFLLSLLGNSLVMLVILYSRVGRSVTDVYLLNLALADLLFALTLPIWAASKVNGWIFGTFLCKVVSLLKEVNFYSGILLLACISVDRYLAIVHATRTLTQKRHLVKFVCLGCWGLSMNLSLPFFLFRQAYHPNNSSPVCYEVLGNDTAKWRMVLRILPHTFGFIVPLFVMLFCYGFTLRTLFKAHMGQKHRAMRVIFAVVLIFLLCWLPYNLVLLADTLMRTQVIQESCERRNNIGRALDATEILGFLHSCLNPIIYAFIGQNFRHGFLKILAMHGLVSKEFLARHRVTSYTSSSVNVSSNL

[4] = target: T3, C-C chemokine receptor type 4 (Homo sapiens) (UniProt P51679); test: Antagonist activity at CCR4 (unknown origin) assessed as inhibition of chemotaxis at 10 uM
T3 sequence (whole entry): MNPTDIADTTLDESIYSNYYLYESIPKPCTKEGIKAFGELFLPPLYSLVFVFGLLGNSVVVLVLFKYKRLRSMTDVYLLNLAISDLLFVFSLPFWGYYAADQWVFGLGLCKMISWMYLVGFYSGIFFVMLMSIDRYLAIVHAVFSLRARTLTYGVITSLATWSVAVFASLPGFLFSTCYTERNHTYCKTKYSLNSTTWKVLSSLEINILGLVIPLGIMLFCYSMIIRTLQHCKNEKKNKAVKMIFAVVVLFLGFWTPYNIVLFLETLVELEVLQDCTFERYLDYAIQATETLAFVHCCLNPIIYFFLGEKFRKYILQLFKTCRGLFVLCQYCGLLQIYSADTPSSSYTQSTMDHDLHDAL

[5] = system: Rattus norvegicus; test: Toxicity in Sprague-Dawley rat assessed as effect on complete blood cell count at 70 to 360 mg/kg, po after 7 days; format: organism-based; parameters: dose 70-360 mg/kg, route oral; conditions: in vivo, 168 h
[6] = target: T4, C-C chemokine receptor type 10 (Homo sapiens) (UniProt P46092); test: Antagonist activity at CCR10 (unknown origin) assessed as inhibition of calcium flux at 10 uM; format: functional
T4 sequence (whole entry): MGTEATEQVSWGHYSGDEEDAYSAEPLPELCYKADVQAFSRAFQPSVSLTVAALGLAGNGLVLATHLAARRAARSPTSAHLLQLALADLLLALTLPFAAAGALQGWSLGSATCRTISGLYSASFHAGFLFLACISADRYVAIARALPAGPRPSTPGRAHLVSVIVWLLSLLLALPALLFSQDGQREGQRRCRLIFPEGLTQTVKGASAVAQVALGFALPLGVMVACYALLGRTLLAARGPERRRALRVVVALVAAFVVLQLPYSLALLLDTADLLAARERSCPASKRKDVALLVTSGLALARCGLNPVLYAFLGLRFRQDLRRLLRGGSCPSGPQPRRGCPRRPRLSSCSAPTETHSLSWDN

[7] = target: C-C chemokine receptor type 2 (Homo sapiens) (UniProt P41597); test: Antagonist activity at CCR2 (unknown origin) assessed as inhibition of calcium flux at 10 uM; format: functional
[8] = target: T5, Atypical chemokine receptor 1 (Homo sapiens) (UniProt Q16570); test: Antagonist activity at Duffy (unknown origin) assessed as inhibition of chemotaxis at 10 uM
T5 sequence (whole entry): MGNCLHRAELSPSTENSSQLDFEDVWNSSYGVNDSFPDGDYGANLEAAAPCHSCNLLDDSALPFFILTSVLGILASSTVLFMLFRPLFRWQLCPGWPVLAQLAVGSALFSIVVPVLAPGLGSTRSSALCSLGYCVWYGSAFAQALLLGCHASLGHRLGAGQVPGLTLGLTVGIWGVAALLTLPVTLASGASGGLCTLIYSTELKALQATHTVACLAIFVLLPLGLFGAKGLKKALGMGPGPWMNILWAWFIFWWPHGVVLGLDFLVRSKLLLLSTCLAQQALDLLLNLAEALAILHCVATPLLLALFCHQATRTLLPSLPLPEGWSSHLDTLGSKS

[9] = target: C-X-C chemokine receptor type 4 (Homo sapiens) (UniProt P61073); test: Antagonist activity at CXCR4 (unknown origin) assessed as inhibition of chemotaxis at 10 uM
[10] = target: T6, G protein-coupled receptor (Human herpesvirus 8) (UniProt Q76SF8); test: Antagonist activity at HHV8 ORF74 assessed as inhibition of chemotaxis at 10 uM; conditions: Human gammaherpesvirus 8
T6 sequence (whole entry): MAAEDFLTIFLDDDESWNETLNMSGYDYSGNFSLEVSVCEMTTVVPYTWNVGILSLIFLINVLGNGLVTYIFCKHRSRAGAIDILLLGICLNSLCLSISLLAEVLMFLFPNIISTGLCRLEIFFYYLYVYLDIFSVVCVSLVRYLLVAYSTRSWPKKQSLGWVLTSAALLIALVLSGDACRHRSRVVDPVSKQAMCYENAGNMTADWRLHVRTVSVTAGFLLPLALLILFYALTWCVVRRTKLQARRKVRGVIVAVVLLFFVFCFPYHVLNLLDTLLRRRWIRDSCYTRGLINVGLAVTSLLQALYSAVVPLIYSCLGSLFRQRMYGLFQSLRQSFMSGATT

Sequence of C-C chemokine receptor type 2 (Homo sapiens) (P41597 whole entry, looked up): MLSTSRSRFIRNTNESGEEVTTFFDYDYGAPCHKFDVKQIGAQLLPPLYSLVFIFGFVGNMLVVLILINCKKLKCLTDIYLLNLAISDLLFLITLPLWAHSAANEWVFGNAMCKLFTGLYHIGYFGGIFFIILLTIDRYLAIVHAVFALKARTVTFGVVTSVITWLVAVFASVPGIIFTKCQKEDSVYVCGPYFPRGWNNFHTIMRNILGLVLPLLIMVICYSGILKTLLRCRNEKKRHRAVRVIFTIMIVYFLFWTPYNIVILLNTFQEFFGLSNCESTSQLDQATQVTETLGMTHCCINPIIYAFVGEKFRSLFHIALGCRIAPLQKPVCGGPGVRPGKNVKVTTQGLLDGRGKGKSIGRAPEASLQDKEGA
Sequence of C-X-C chemokine receptor type 6 (Homo sapiens) (O00574 whole entry, looked up): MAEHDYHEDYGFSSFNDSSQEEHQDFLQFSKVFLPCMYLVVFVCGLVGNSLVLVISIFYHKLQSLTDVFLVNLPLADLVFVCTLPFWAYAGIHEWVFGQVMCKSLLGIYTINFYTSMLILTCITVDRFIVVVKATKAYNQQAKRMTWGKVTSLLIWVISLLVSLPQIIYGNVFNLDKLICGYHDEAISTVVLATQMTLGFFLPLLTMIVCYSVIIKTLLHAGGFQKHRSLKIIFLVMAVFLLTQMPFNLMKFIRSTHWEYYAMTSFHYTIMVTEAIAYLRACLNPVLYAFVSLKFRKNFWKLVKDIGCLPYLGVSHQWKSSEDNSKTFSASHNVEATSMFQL
Sequence of C-X-C chemokine receptor type 4 (Homo sapiens) (P61073 whole entry): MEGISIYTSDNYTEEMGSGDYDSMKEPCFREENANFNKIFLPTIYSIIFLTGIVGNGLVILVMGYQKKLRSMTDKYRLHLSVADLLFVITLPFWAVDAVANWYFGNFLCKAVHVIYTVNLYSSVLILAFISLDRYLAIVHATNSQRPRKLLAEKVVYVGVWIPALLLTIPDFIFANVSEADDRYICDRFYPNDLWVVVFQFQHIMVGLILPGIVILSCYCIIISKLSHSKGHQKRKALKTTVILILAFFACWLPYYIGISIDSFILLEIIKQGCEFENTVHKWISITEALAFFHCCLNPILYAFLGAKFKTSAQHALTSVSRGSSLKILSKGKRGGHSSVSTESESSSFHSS

For `COc1cc(N2CCN(C(=O)Cn3nc(C(F)(F)F)c(Cl)c3C)CC2)ccc1Cl`, the inhibition [1] was “inactive”, the inhibition [2] was “inactive” and the inhibition [3] was “inactive”. For the same compound, the inhibition [4] was “inactive”, the Activity [5] was “Non-toxic” and the inhibition [6] was “inactive”. The inhibition [7] was “inactive”, the inhibition [8] was “inactive” and the inhibition [9] was “inactive”. The inhibition [10] was “inactive”.
